Columns and labels:
EcoLplA = target: T1, EcoLplA (Escherichia coli, UniProt P32099); test: lipoylation of GcvH / GcvH-L, anti-lipoyl immunoblot; assay type: biochemical; settings: co-substrate EcoGcvH, SauGcvH or SauGcvH-L; 1 uM LplA, 2 uM target protein, 30 min, 30 C
T1 construct: gene lplA
T1 sequence (P32099 2-338): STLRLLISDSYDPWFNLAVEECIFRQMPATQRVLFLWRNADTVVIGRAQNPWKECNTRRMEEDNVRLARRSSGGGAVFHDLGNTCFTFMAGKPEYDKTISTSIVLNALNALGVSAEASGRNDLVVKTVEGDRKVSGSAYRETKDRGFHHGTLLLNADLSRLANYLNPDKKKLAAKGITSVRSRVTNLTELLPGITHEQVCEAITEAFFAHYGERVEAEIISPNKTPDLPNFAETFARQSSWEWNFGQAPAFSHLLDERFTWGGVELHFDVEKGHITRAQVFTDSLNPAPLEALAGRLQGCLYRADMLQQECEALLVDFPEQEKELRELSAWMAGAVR

LplA2 (S. pyogenes) = target: T2, LplA2 (S. pyogenes) (Streptococcus pyogenes, UniProt P0DN72); test: lipoylation of GcvH-L, anti-lipoyl immunoblot; assay type: biochemical; settings: co-substrate SpyGcvH-L; 1 uM LplA, 2 uM target protein, 30 min, 30 C
T2 construct: gene lplA
T2 sequence (P0DN72 whole entry): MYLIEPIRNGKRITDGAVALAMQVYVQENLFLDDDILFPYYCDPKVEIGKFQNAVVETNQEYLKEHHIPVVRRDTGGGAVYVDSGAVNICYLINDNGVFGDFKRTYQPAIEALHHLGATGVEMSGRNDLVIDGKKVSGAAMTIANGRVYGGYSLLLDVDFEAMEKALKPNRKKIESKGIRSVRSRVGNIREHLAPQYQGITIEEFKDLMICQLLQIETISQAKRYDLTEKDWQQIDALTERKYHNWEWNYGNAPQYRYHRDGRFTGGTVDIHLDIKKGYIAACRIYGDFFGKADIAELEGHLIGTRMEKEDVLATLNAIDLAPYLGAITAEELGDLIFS

SauLplA2 = target: T3, SauLplA2 (Staphylococcus aureus, UniProt A0A0H3JX98); test: lipoylation of GcvH-L, anti-lipoyl immunoblot; assay type: biochemical; settings: co-substrate SauGcvH-L; 1 uM LplA, 2 uM target protein, 30 min, 30 C
T3 construct: gene SAV0327
T3 sequence (A0A0H3JX98 1-340): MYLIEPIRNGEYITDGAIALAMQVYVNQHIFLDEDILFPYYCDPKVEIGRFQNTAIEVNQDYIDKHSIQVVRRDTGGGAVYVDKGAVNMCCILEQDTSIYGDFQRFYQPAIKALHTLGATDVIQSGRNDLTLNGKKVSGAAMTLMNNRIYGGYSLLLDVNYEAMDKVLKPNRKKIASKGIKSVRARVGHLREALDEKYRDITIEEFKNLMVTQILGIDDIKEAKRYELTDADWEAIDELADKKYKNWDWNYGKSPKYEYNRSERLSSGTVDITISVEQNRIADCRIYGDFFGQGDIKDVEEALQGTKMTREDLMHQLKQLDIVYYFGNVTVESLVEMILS

SauLplA1 = target: T4, SauLplA1 (Staphylococcus aureus, UniProt A0A0H3JR16); settings: co-substrate SauGcvH or SauGcvH-L; 1 uM LplA, 2 uM target protein, 30 min, 30 C
T4 construct: gene SAV1028
T4 sequence (A0A0H3JR16 whole entry): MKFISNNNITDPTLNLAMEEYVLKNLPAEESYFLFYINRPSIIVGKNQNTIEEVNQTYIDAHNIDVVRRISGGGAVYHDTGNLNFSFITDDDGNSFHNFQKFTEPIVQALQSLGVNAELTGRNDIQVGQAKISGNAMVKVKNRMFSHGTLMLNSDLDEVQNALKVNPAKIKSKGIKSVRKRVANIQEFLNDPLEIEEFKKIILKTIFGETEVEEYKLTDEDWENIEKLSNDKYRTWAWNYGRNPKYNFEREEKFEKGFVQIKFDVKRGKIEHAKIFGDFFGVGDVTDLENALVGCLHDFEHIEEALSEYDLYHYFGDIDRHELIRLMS

SpySirTM = target: T5, SpySirTM (Streptococcus pyogenes, UniProt P0DN71); test: X-ray crystallography (crystal soak); assay type: binding; settings: 1 mM ligand soak, 10 min; 2.03 A; active site; also ADP-ribosyl donor for lipoylated GcvH-L
T5 construct: gene SpyM50869; crystal model residues 3-292 (7-10 not visible)
T5 sequence (P0DN71 whole entry, the tested form may be a part): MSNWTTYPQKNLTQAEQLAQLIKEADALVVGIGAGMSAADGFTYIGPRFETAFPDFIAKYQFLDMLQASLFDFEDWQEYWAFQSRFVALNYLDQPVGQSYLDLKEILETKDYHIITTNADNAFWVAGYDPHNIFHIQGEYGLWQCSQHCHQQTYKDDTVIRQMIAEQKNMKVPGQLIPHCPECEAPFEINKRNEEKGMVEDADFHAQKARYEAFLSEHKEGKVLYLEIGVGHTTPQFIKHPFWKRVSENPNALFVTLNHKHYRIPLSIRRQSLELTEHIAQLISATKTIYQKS

| Structure (SMILES) | lipoylation of GcvH / GcvH-L, anti-lipoyl immunoblot (EcoLplA) | lipoylation of GcvH-L, anti-lipoyl immunoblot (LplA2 (S. pyogenes)) | lipoylation of GcvH-L, anti-lipoyl immunoblot (SauLplA2) | lipoylation of GcvH / GcvH-L, anti-lipoyl immunoblot (SauLplA1) | X-ray crystallography (crystal soak) (SpySirTM) |
| --- | --- | --- | --- | --- | --- |
| O=C(O)CCCC[C@@H]1CCSS1 (racemic) [lipoic acid] | EcoLplA readily modifies all three GcvHs | both operonal LplA2s efficiently transferred lipoic acid (LA) onto GcvH-L | both operonal LplA2s efficiently transferred lipoic acid (LA) onto GcvH-L | SauLplA1 appears to be indiscriminative toward both S. aureus GcvHs |  |
| NC(=O)c1ccc[n+]([C@@H]2O[C@H](COP(=O)(O)OP(=O)(O)OC[C@H]3O[C@@H](n4cnc5c(N)ncnc54)[C@H](O)[C@@H]3O)[C@@H](O)[C@H]2O)c1 [NAD^+] |  |  |  |  | The ligand-SpySirTM complexes reveal that the general mode of NAD^+ binding to SpySirTM is similar |

Source: article PMC4518038, “Identification of a Class of Protein ADP-Ribosylating Sirtuins in Microbial Pathogens” (Molecular Cell, 2015)
